Assay results published in patent US6528494B2 (priority 1996, dated 2003).
Counter-ions that a name gives are not always drawn.

Columns and labels:
Type in all cases: cell-based
adenosine 3 receptor = target: T1, adenosine 3 receptor (Homo sapiens, UniProt P0DMS8); assay: Agonist activity against adenosine 3 receptor (CHO cells, forskolin-enhanced cAMP/SPAP reporter); conditions: CHO cells transfected with human receptor, forskolin-enhanced cAMP via SPAP, mean of all the versions tested
T1 sequence (P0DMS8 1-318): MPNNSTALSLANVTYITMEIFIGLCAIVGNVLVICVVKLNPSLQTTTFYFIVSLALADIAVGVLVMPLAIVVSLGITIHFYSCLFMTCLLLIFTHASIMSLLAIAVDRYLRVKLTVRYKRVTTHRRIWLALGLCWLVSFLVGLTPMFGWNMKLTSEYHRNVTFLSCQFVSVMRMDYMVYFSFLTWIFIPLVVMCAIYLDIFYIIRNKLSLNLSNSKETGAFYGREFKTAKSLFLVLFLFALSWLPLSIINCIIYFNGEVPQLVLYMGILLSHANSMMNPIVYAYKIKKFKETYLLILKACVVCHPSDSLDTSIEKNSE
Protocol: (§1) (1) Agonist activity against adenosine 2a, adenosine 1 and adenosine 3 receptor subtypes.
(§2) The effect of test compounds was determined by their effects on basal levels of cAMP (A2a) or on forskolin-enhanced cAMP (A1 and A3) as reflected by changes in levels of SPAP.

adenosine 2a receptor = adenosine 2a receptor (Homo sapiens, UniProt P29274); assay: Agonist activity against adenosine 2a receptor (CHO cells, cAMP/SPAP reporter); conditions: CHO cells transfected with human receptor, basal cAMP via SPAP, mean of all the versions tested
Protocol: as §1, §2

adenosine 1 receptor = target: T2, adenosine 1 receptor (Homo sapiens, UniProt P30542); assay: Agonist activity against adenosine 1 receptor (CHO cells, forskolin-enhanced cAMP/SPAP reporter); conditions: CHO cells transfected with human receptor, forskolin-enhanced cAMP via SPAP, mean of all the versions tested
T2 sequence (P30542 1-326): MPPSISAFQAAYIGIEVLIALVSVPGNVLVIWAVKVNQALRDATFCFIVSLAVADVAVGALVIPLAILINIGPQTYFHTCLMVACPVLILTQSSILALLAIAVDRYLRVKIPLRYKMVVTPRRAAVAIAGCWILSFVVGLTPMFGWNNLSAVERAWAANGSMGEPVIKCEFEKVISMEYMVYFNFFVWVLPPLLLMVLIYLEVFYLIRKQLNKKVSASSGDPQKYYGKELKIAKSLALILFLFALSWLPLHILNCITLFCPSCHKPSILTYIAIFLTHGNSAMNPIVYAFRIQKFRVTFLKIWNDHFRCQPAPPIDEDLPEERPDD
Protocol: as §1, §2

Chain of adenosine 2a receptor (P29274 whole entry): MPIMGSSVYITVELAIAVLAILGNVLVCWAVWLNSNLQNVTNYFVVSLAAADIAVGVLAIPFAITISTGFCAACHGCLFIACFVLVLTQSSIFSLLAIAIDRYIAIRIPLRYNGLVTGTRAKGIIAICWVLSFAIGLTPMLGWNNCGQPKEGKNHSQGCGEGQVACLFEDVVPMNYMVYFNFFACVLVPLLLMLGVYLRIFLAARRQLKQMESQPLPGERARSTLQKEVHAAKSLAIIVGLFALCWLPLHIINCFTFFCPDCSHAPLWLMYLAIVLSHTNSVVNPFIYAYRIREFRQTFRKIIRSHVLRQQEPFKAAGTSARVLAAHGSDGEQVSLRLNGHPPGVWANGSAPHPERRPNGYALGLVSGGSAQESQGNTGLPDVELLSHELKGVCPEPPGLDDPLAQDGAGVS

A3 EC50 as a ratio of that of NECA (adenosine 3 receptor; Dihydrochloride)	A2a EC50 as a ratio of that of NECA (adenosine 2a receptor; Dihydrochloride)	A1 EC50 as a ratio of that of NECA (adenosine 1 receptor; Dihydrochloride)	Compound	A3 EC50 as a ratio of that of NECA (adenosine 3 receptor)	A2a EC50 as a ratio of that of NECA (adenosine 2a receptor)	A1 EC50 as a ratio of that of NECA (adenosine 1 receptor)
			CCn1nnc([C@H]2O[C@@H](n3cnc4c(N)nc(NCCc5ccc(OC)c(OC)c5)nc43)[C@H](O)[C@@H]2O)n1.O=C(O)C(F)(F)F [Example 20, (2R,3R,4S,5R)-2-{6-Amino-2-[2-(3,4-dimethoxy-phenyl)-ethylamino]-purin-9-yl}-5-(2-ethyl-2H-tetrazol-5-yl)-tetrahydro-furan-3,4-diol Trifluoroacetate]	>183	0.14	253
>442	0.69	237.9	CCn1nnc(C2OC(n3cnc4c(NCC(c5ccccc5)c5ccccc5)nc(NC5CCNC5)nc43)C(O)C2O)n1 [Example 21, (2R,3R,4S,5R)-2-[6-(2,2-Diphenyl-ethylamino)-2-(pyrrolidin-3R-ylamino)-purin-9-yl]-5-(2-ethyl-2H-tetrazol-5-yl)-tetrahydro-furan-3,4-diol Dihydrochloride]			
			CCn1nnc([C@H]2O[C@@H](n3cnc4c(NCC(c5ccccc5)c5ccccc5)nc(NCCc5cccc(N)n5)nc43)[C@H](O)[C@@H]2O)n1.O=C(O)C(F)(F)F.O=C(O)C(F)(F)F.O=C(O)C(F)(F)F [Example 22, (2R,3R,4S,5R)-2-[2-[2-(6-Amino-pyridin-2-yl)-ethylamino]-6-(2,2-diphenyl-ethylamino)-purin-9-yl]-5-(2-ethyl-2H-tetrazol-5-yl)-tetrahydro-furan-3,4-diol tris(Trifluoroacetate)]	>188	0.67	86.4
			CCn1nnc(C2OC(n3cnc4c(NCc5cccc(I)c5)nc(NC5CCNC5)nc43)C(O)C2O)n1 [Example 23, (2R,3S,4R,5R)-2-(2-Ethyl-2H-tetrazol-5-yl)-5-[6-(3-iodo-benzylamino)-2-(pyrrolidin-3R-ylamino)-purin-9-yl]-tetrahydro-furan-3,4-diol Diformate]	>336	0.8	159
			Cn1nnc(C2OC(n3cnc4c(NC5CCCC5)nc(NCCN5CCCCC5)nc43)C(O)C2O)n1.O=CO.O=CO [Example 25, (2R,3R,4S,5R)-2-[6-Cyclopentylamino-2-(2-piperidin-1-yl-ethylamino)-purin-9-yl]-5-(2-methyl-2H-tetrazol-5-yl)-tetrahydro-furan-3,4-diol Diformate]	>388	0.56	211.8
			Cn1nnc(C2OC(n3cnc4c(NCC(c5ccccc5)c5ccccc5)nc(NCCN5CCCCC5)nc43)C(O)C2O)n1.O=CO.O=CO (stereo not drawn) [Example 26]	>329	0.86	241.4
			Cn1cnc(CCNc2nc(NCC(c3ccccc3)c3ccccc3)c3ncn([C@@H]4O[C@H](c5nnn(C)n5)[C@@H](O)[C@H]4O)c3n2)c1.O=CO [Example 27, (2R,3R,4S,5R)-2-{6-(2,2-Diphenyl-ethylamino)-2-[2-(1-methyl-1H-imidazol-4-yl)-ethylamino]-purin-9-yl}-5-(2-methyl-2H-tetrazol-5-yl)-tetrahydro-furan-3,4-diol Formate]	>286	0.08	449.7
			Cn1cnc(CCNc2nc(NCCC(C)(C)C)c3ncn([C@@H]4O[C@H](c5nnn(C)n5)[C@@H](O)[C@H]4O)c3n2)c1.O=CO [Example 28, (2R,3R,4S,5R)-2-{6-(3,3-Dimethyl-butylamino)-2-[2-(1-methyl-1H-imidazol-4-yl)-ethylamino]-purin-9-yl}-5-(2-methyl-2H-tetrazol-5-yl)-tetrahydro-furan-3,4-diol Formate]	>151	0.36	>=1250
			Cn1cnc(CCNc2nc(NCc3cccc(I)c3)c3ncn([C@@H]4O[C@H](c5nnn(C)n5)[C@@H](O)[C@H]4O)c3n2)c1.O=CO [Example 29, (2R,3R,4S,5R)-2-{6-(3-Iodo-benzylamino)-2-[2-(1-methyl-1H-imidazol-4-yl)-ethylamino]-purin-9-yl}-5-(2-methyl-2H-tetrazol-5-yl)-tetrahydro-furan-3,4-diol Formate]	>105	0.87	>3561
			Cn1cnc(CCNc2nc(NCc3ccccc3)c3ncn([C@@H]4O[C@H](c5nnn(C)n5)[C@@H](O)[C@H]4O)c3n2)c1.O=CO [Example 30, (2R,3R,4S,5R)-2-{6-Benzylamino-2-[2-(1-methyl-1H-imidazol-4-yl)-ethylamino]-purin-9-yl}-5-(2-methyl-2H-tetrazol-5-yl)-tetrahydro-furan-3,4-diol Formate]	>105	0.43	>7976
			Cn1cnc(CCNc2nc(NCCC3CCCCC3)c3ncn([C@@H]4O[C@H](c5nnn(C)n5)[C@@H](O)[C@H]4O)c3n2)c1.O=CO [Example 31, (2R,3R,4S,5R)-2-{6-(2-Cyclohexyl-ethylamino)-2-[2-(1-methyl-1H-imidazol-4-yl)-ethylamino]-purin-9-yl}-5-(2-methyl-2H-tetrazol-5-yl)-tetrahydro-furan-3,4-diol Formate]	>100	0.49	>=3680
			Cn1cnc(CCNc2nc(NC(CO)Cc3ccccc3)c3ncn(C4OC(c5nnn(C)n5)C(O)C4O)c3n2)c1 [Example 32, (2R,3R,4S,5R)-2-{6-(1S-Hydroxymethyl-2-phenyl-ethylamino)-2-[2-(1-methyl-1H-imidazol-4-yl)-ethylamino]-purin-9-yl}-5-(2-methyl-2H-tetrazol-5-yl)-tetrahydro-furan-3,4-diol Formate]	>100	0.026	56.2
			CCC(CC)Nc1nc(NCCc2cn(C)cn2)nc2c1ncn2[C@@H]1O[C@H](c2nnn(C)n2)[C@@H](O)[C@H]1O.O=CO [Example 33, (2R,3R,4S,5R)-2-{6-(1-Ethyl-propylamino)-2-[2-(1-methyl-1H-imidazol-4-yl)-ethylamino]-purin-9-yl}-5-(2-methyl-2H-tetrazol-5-yl)-tetrahydro-furan-3,4-diol Formate]	>172	0.16	>4045
			Cn1cnc(CCNc2nc(NCCc3ccccc3)c3ncn([C@@H]4O[C@H](c5nnn(C)n5)[C@@H](O)[C@H]4O)c3n2)c1.O=CO [Example 34, (2R,3R,4S,5R)-2-{2-[2-(1-Methyl-1H-imidazol-4-yl)-ethylamino]-6-phenethylamino-purin-9-yl}-5-(2-methyl-2H-tetrazol-5-yl)-tetrahydro-furan-3,4-diol Formate]	>173	0.13	1316
			Cn1nnc(C2OC(n3cnc4c(NC(CO)Cc5ccccc5)nc(NC5CCC(N)CC5)nc43)C(O)C2O)n1 [Example 35, (2R,3R,4S,5R)-2-[2-(trans-4-Amino-cyclohexylamino)-6-(1S-hydroxymethyl-2-phenyl-ethylamino)-purin-9-yl]-5-(2-methyl-2H-tetrazol-5-yl)-tetrahydro-furan-3,4-diol bis(Formate)]	>201	0.79	123
			Cn1nnc(C2OC(n3cnc4c(NC5CCCC5)nc(NC(CO)Cc5ccccc5)nc43)C(O)C2O)n1 [Example 36, (2R,3R,4S,5R)-2-[6-Cyclopentylamino-2-(1S-hydroxymethyl-2-phenyl-ethylamino)-purin-9-yl]-5-(2-methyl-2H-tetrazol-5-yl)-tetrahydro-furan-3,4-diol Formate]	>315	0.99	1.9
			Cn1nnc(C2OC(n3cnc4c(N)nc(NC(CO)Cc5ccccc5)nc43)C(O)C2O)n1 [Example 37, (2R,3R,4S,5R)-2-[6-Amino-2-(1S-hydroxymethyl-2-phenyl-ethylamino)-purin-9-yl]-5-(2-methyl-2H-tetrazol-5-yl)-tetrahydro-furan-3,4-diol Formate]	>348	0.52	119.1
